Measurements taken from patent US7271146B2, “Methods for treatment of Helicobacter pylori-associated disorders” (Vecta Ltd., priority 2002, dated 2007).
Read-outs that look alike come from different tables or passages of the source.

Key:
[1] = system: H. pylori; experiment: H. pylori growth with omeprazole, pentagastrin, amoxycillin and combinations, monitored spectrophotometrically; format: cell-based; conditions: single or triple-combined treatment; 18, 24, 46 hours; FIG. 3
Experimental: In an attempt to optimize the antibacterial formulation for eradication of H. pylori, the effect of pentagastrin and omeprazole provided in combination with amoxicillin was tested. Amoxicillin is a commonly accepted antibiotic used for H. pylori treatment. To investigate the effect of triple administration we tested the growth of bacteria in the presence of omeprazole, pentagastrin, amoxycillin, and their possible combinations was tested. Bacteria grown in the absence of any agent was used as a negative control. The level of bacterial growth was monitored spectrophotometrically after 18, 24, and 46 hours of treatment.

[2] = system: gastric acid secretion; experiment: Gastric acid secretion after oral PG in fasted rats, no pylorus ligation; format: in vivo, Wistar Hanover rats; conditions: PG 50 μg P.O.
Experimental: (§1) Male and female Wistar Hanover rats, 7-10 weeks of age, were obtained from Harlan Laboratories (Rehovot, Israel). Animals were fed standard chow and received unlimited water supply. The animals were kept in automatically controlled temperature (between 20-24° C.), a 12-hour light/dark cycle, and 15 air changes an hour.
(§2) Rats were fasted (with water freely available) for 24 hours before experimentation. PG or saline were introduced into the stomach by means of a steel feeding needle. Thereafter, the animals were injected with Domitor and Ketaset; the abdominal wall was dissected and gastric fluid (approximately 30 μl) was collected by puncture with a needle (0.45×13 2006-09 Artsana S.P.A., Grandate (CO), Italy) at the indicated time points. Gastric juice was kept frozen at −80° C. until use. In some experiments, the rats were first anesthetized and dissected, after which test reagents were introduced by direct injection into the stomach. […]
(§3) Frozen gastric juice was defrosted at room temperature, mixed by vortexing, and centrifuged for 5 minutes at 14,000 RPM. […] The pH was measured, and NaOH (0.001 N) was added to the sample until pH 7 was reached, as determined by measuring pH using a pH meter (pH211, Hanna Instruments, 35030 Sameola di Rubano, Italy). […]

[3] = system: H. pylori (H-88 clinical isolate); experiment: H. pylori growth in liquid medium, CFU counts, 48 hours; format: cell-based; conditions: 48 hours incubation, FIG. 1A
[4] = system: acid secretion; conditions: oral PG, cited from earlier work
[5] = Blood glucose levels in pylorus-ligated rats challenged with oral PG; format: in vivo; conditions: compared to controls, FIG. 6
Experimental: The observed effects of stimulation of gastric acid secretion may occur by different mechanisms. PG may be digested by gastric enzymes and the resulting free amino acids may stimulate acid secretion directly. Alternatively, the intact peptide may be actually absorbed from the gastric lumen and exert its effect on CCK-B receptors on the ECL and parietal cells. […] Since blood glucose levels reflect the activity of peripheral insulin, glucose levels were measured in the pylorus-ligated rats following the administration of PG or saline. These measurements served as a surrogate marker for PG-induced insulin release via activation of CCK-B receptors on the ECL and parietal cells. […] This observation supports the notion that the PG was absorbed intact and thereby could directly exert its effect on gastric tissue and stimulate secretion of gastric acid. […] B. Co-Administration of PG and Omeprazole

[6] = system: gastric mucosa; conditions: applied to the luminal surface, in vitro bullfrog model; cited from earlier work
[7] = system: gastric acid secretion; experiment: Gastric acid secretion after oral PG in pylorus-ligated rats; format: in vivo, Wistar Hanover rats; conditions: PG 50 μg P.O., vs saline
Experimental: as §1, §2, §3

| Molecule | inhibition of bacterial growth (spectrophotometric) [1] | time of maximal effect on acid secretion after oral PG ([2]; p=0.05) [min] | secretion of acid into the gastric lumen ([2]; vs saline and S.C. PG, FIG. 4) | bacterial growth, CFU counts [3] | effect on acid secretion ([4]; four normal subjects) | effect on acid secretion ([4]; three patients with gastrointestinal abnormalities) | blood glucose levels [5] | effect on gastric mucosa [6] | gastric acid output ([7]; all time points, p<0.05, FIG. 5B) | gastric pH ([7]; p<0.05, FIG. 5A) |
| --- | --- | --- | --- | --- | --- | --- | --- | --- | --- | --- |
| βAla-Trp-Met-Asp-PheNH2 [PG] | moderate inhibition | 30 | significant secretion of acid | inhibited bacterial growth to an extent similar to that of omeprazole | no effect | some effect | decreased | did not affect the gastric mucosa | significantly increased | decreased |
| caerulein | – | – | – | inhibited bacterial growth to an extent similar to that of omeprazole | – | – | – | – | – | – |
| CC1(C)S[C@@H]2[C@H](NC(=O)[C@H](N)c3ccc(O)cc3)C(=O)N2[C@H]1C(=O)O [amoxicillin] | moderate inhibition | – | – | – | – | – | – | – | – | – |
